From US11013745B2, “Triazolopyrimidine, triazolopyridine compounds, and the composition thereof for treating PRC2-mediated diseases” (SHANGHAI INSTITUTE OF MATERIA MEDICA, CHINESE ACADEMY OF …, priority 2017, dated 2021)
Read-outs that look alike come from different tables or passages of the source. Each block holds one molecule with its values, some of them ahead of it.

Legend:
PRC2 enzyme = PRC2 enzyme (Homo sapiens (Human), UniProt O75530); experiment: PRC2 enzyme activity, TR-FRET method; type: biochemical
Chain of PRC2 enzyme (O75530 whole entry): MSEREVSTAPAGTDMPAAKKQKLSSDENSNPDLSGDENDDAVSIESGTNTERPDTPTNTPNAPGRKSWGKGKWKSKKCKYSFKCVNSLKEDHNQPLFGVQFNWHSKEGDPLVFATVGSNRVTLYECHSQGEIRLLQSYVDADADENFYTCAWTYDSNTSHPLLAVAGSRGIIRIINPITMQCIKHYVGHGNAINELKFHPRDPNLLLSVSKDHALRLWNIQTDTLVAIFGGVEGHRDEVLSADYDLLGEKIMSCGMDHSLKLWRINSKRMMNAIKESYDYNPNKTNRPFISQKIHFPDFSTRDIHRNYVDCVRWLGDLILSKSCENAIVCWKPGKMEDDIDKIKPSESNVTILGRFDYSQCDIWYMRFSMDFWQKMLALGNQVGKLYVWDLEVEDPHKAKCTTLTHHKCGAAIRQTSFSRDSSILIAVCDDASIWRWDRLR
Chain of PRC2 enzyme (Q15910 whole entry partner): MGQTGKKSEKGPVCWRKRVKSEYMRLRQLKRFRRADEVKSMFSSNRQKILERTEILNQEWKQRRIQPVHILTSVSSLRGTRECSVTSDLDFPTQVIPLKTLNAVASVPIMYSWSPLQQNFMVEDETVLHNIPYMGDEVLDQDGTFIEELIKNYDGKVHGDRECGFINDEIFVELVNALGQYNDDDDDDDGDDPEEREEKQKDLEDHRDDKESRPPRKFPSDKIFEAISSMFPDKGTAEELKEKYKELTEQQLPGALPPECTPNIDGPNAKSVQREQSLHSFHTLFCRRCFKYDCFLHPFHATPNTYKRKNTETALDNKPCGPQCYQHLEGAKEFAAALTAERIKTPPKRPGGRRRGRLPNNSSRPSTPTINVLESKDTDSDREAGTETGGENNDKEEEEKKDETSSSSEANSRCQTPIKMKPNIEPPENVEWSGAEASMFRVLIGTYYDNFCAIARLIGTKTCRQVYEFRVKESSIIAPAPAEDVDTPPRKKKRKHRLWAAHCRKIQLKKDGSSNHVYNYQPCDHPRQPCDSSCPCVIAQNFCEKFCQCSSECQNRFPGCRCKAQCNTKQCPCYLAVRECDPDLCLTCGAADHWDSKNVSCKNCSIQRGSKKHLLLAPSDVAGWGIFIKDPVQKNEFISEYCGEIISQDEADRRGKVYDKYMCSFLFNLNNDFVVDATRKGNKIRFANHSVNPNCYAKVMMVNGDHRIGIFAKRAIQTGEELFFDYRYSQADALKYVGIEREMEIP
Chain of PRC2 enzyme (Q15022 whole entry partner): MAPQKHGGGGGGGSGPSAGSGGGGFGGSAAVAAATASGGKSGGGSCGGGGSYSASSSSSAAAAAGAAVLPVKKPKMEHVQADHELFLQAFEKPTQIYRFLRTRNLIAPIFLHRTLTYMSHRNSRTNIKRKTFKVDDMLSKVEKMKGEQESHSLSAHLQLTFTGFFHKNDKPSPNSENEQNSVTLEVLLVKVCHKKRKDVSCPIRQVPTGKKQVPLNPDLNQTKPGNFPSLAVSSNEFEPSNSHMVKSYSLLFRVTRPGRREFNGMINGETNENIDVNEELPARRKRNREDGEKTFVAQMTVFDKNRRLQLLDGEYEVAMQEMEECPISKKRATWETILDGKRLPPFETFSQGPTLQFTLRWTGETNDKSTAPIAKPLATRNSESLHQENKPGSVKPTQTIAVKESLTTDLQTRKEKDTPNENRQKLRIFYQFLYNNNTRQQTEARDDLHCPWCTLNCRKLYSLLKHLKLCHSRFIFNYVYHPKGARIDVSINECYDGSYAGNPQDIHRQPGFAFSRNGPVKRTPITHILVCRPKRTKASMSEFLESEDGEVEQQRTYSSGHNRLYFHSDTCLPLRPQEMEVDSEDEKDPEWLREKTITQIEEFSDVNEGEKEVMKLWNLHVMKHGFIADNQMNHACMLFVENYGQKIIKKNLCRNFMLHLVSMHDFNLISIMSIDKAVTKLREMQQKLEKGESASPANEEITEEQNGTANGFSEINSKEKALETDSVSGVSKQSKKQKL
Description: The TR-FRET method was used to measure the PRC2 enzyme activity. First, the enzyme was mixed with compounds at different concentrations and incubated for 30 min at room temperature. The biotin-labeled histone H3 peptide substrate and the cofactor S-adenosylmethionine (SAM) were added to initiate the enzymatic reaction. After reaction was performed at room temperature for 4 hour, Acceptor and Donor were added and incubated for half an hour. The multifunctional microplate reader EnVision (Perkin Elmer Inc.) was used to detect the fluorescence signal. Data were analyzed using GraphPad Prism 5.0 software, and IC50 values were obtained.

Pfeiffer cells = experiment: Pfeiffer cell growth inhibition in a long term (11 days), CellTiter-Glo; type: cell-based, Human; details: Homo sapiens, 264 h, read-out: Experiment on Pfeiffer cell growth inhibition in a long term (11 days IC50)
Description: Pfeiffer cells in exponential growth phase were seeded in a 24-well plate with a cell density of 1*10E5 cells/mL. Cells were treated on the same day with the compounds at different concentrations. At day 4 and day 7 of compound treatment, fresh media and compounds were changed. After treated with the compounds for 11 days, cell viability was measured using CellTiter-Glo reagent (Promega Corporation). The data was analyzed using GraphPad Prism 5.0 software and GI50 values were obtained.

[1] = Liver microsomal stability (human); type: in vitro ADME
Description: (§1) 1. JANUS and temperature control device was turned on. After being initialized, the pipes were flushed until there was no air bubble in the pipes.
(§2) 2. Preparation of buffers used for the experiment
(§3) Preparation of Tris pH 7.4 buffer (0.1 M): 12.12 g of Tris was dissolved in 1000 mL of H2O, the resulting solution was adjusted to pH 7.4 with 2N HCl, aliquoted at 50 mL per tube, and stored at −20° C.
(§4) Preparation of H2O/0.1% BSA buffer: 200 μL of 25% BSA was added to 50 mL of H2O.
(§5) Preparation of VIVID stock solution: 1 mg of VIVID was dissolved in 1 mL of acetonitrile, aliquoted at 50 μL per tube, and stored at −20° C.
(§6) Preparation of MgCl2 solution (100 mM): 1.016 g of MgCl2 was dissolved in 50 mL Tris pH 7.4 buffer, and aliquoted at 1 mL per tube, and stored at −20° C.
(§7) Preparation of NADPH solution (10 mM): 355 mg of NADPH was dissolved in 42.6 mL of Tris pH 7.4 buffer, aliquoted at 1.8 mL per tube, and stored at −20° C.
(§8) Preparation of Blank control: 7.937 mL of Tris, 163 μL of RLM, 450 μL of MgCl2 solution, 450 μL of NADPH solution and 9 mL of methanol were mixed uniformly, aliquoted at 1 mL per tube, and stored at −20° C.
(§9) 3. Preparation of Compound Working Solution
(§10) Dilution step 1:10 μL of compound stock solution was added to 90 μL of DMSO=1 mM stock solution.
(§11) Dilution step 2: 2 μL of 1 mM stock solution was added to 1 mL of H2O/0.1%6 BSA buffer=[…] working solution.
(§12) Dilution step 3: 245 μL of the working solution was added to a 96-well compound plate and added with 5 μL of VIVID stock solution.
(§13) The 96-well compound plate was shaken on a shaker for 5 min.
(§14) 4. The STM in the JANUS in the computer was open to run the EXCEL file, and the JANUS program was operated and run by following the instructions in the EXCEL file.
(§15) 5. After the JANUS program was finished, acetonitrile/water 50:50 (V/V) was added to column 20 of the 384-well black plate, and blank control was added to column 21 of the 384-well black plate.
(§16) 6. the plate (420 nm-465 nm) was read on a microplate reader to determine the VIVID fluorescence intensity.
(§17) 7. After the plate was sealed, shaken and centrifuged, the sample plate was subjected to the LC/MS instrument for sample analysis.
(§18) A profile of the logarithmic value of the remaining rate of the drug in the incubation system versus the incubation time was plotted, and the slope k was obtained by linear regression. The intrinsic clearance rate in vivo (Clint, mL/min/g) value, the clearance rate in vivo (Cl, mL)/min), liver clearance (Clhep, mL/min) and metabolic bioavailability (% MF) were predicted according to the following equations: […]

[2] = Liver microsomal stability (rat); type: in vitro ADME; details: rat liver microsomes
Description: as §1, §2, §3, §4, §5, §6, §7, §8, §9, §10, §11, §12, §13, §14, §15, §16, §17, §18

[3] = Liver microsomal stability (mouse); type: in vitro ADME; details: mouse liver microsomes

IC50 (PRC2 enzyme): 0.611 µM
Structure (SMILES): C1=C(c2cnc(NCc3ccco3)n3cnnc23)CCSC1 [E-Y5]

IC50 (Pfeiffer cells; 11 days): 0.083 µM
Structure (SMILES): CC(C)(C)OC(=O)N1CC=C(c2cnc(NCc3ccco3)n3cnnc23)CC1 [E-Y6]

IC50 (PRC2 enzyme): 0.101 µM
Structure (SMILES): Cc1ccc(S(=O)(=O)N2CC=C(c3cnc(NCc4c(F)ccc5c4CCO5)n4cnnc34)CC2)cc1 [E-Y14]

IC50 (Pfeiffer cells; 11 days): 0.0027 µM
Structure (SMILES): CCNC(=O)N1CC=C(c2cnc(NCc3c(F)ccc4c3CCO4)n3cnnc23)CC1 [E-Y17]

IC50 (PRC2 enzyme): 0.021 µM
IC50 (Pfeiffer cells; 11 days): 0.0027 µM
Structure (SMILES): CC(C)(C)NC(=O)N1CC=C(c2cnc(NCc3c(F)ccc4c3CCO4)n3cnnc23)CC1 [E-Y18]

IC50 (PRC2 enzyme): 0.0939 µM
Structure (SMILES): CC(=O)N1CCC(c2cnc(NCc3ccco3)n3cnnc23)CC1 [E-Y20-H]

IC50 (PRC2 enzyme): 0.166 µM
IC50 (Pfeiffer cells; 11 days): 0.158 µM
Structure (SMILES): CC(=O)N1CC=C(c2cnc(NCc3ccco3)n3cnnc23)CC1 [E-Y20]

IC50 (PRC2 enzyme): 0.334 µM
Structure (SMILES): CS(=O)(=O)N1CC=C(c2cnc(NCc3ccco3)n3cnnc23)CC1 [E-Y22]

IC50 (PRC2 enzyme): 0.35 µM
IC50 (Pfeiffer cells; 11 days): 0.107 µM
Structure (SMILES): Cc1ccc(S(=O)(=O)N2CC=C(c3cnc(NCc4ccco4)n4cnnc34)CC2)cc1 [E-Y23]

IC50 (PRC2 enzyme): 0.091 µM
Structure (SMILES): Cc1ccc(NC(=O)N2CC=C(c3cnc(NCc4ccco4)n4cnnc34)CC2)cc1 [E-Y26]

IC50 (PRC2 enzyme): 0.318 µM
Structure (SMILES): CN(C)CC(=O)N1CC=C(c2cnc(NCc3ccco3)n3cnnc23)CC1 [E-Y35]

IC50 (PRC2 enzyme): 0.2 µM
Structure (SMILES): CC(C)(C)OC(=O)N1CC=C(c2cc(C#N)c(NCc3ccco3)n3cnnc23)CC1 [E-Y51]

IC50 (PRC2 enzyme): 0.005 µM
Clearance rate in vivo Clint In Vivo Extpl ([1]; human liver microsomes): 336 mL/min
Half life T-half ([1]; human liver microsomes): 7.98 h
Intrinsic clearance rate in vivo Clint In Vitro ([1]; human liver microsomes): 4.39 mL/min/gprot
Liver clearance rate Clint Hep In Vivo Extpl ([1]; human liver microsomes): 274 mL/min
Metabolic bioavailability MF % ([1]; human liver microsomes): 81.7%
Clearance rate in vivo Clint In Vivo Extpl [2]: 4.26 mL/min
Half life T-half [2]: 3.7 h
Intrinsic clearance rate in vivo Clint In Vitro [2]: 9.47 mL/min/gprot
Liver clearance rate Clint Hep In Vivo Extpl [2]: 3.51 mL/min
Metabolic bioavailability MF % [2]: 82.4%
Clearance rate in vivo Clint In Vivo Extpl [3]: 1.21 mL/min
Half life T-half [3]: 1.95 h
Intrinsic clearance rate in vivo Clint In Vitro [3]: 17.9 mL/min/gprot
Liver clearance rate Clint Hep In Vivo Extpl [3]: 0.862 mL/min
Metabolic bioavailability MF % [3]: 71.3%
Structure (SMILES): CN(C)CC(=O)N1CC=C(c2cnc(NCc3c(F)ccc4c3CCO4)n3cnnc23)CC1 [E-Y54-H]

IC50 (PRC2 enzyme): 0.0041 µM
Clearance rate in vivo Clint In Vivo Extpl ([1]; human liver microsomes): 188 mL/min
Intrinsic clearance rate in vivo Clint In Vitro ([1]; human liver microsomes): 2.46 mL/min/gprot
Liver clearance rate Clint Hep In Vivo Extpl ([1]; human liver microsomes): 167 mL/min
half-life ([1]; human, liver microsomes, pH 7.4, human liver microsomes, read-out: Half life T-half): 14.2 h
bioavailability ([1]; human, liver microsomes, pH 7.4, human liver microsomes, read-out: Metabolic bioavailability MF %): 88.8%
Clearance rate in vivo Clint In Vivo Extpl [2]: 10.0 mL/min
Half life T-half [2]: 1.57 h
Intrinsic clearance rate in vivo Clint In Vitro [2]: 22.3 mL/min/gprot
Liver clearance rate Clint Hep In Vivo Extpl [2]: 6.67 mL/min
Metabolic bioavailability MF % [2]: 66.6%
Clearance rate in vivo Clint In Vivo Extpl [3]: 3.86 mL/min
Half life T-half [3]: 0.613 h
Intrinsic clearance rate in vivo Clint In Vitro [3]: 57.1 mL/min/gprot
Liver clearance rate Clint Hep In Vivo Extpl [3]: 1.69 mL/min
Metabolic bioavailability MF % [3]: 43.7%
Structure (SMILES): CN(C)CC(=O)N1CC=C(c2cnc(NCc3c(F)ccc4c3CCO4)n3cnnc23)CC1 [E-Y54]

IC50 (PRC2 enzyme): 0.0119 µM
Structure (SMILES): Fc1ccc2c(c1CNc1ncc(C3CCCOCC3)c3nncn13)CCO2 (centres unmarked) [SL-ZYE-08]

IC50 (PRC2 enzyme): 0.056 µM
Structure (SMILES): C1=C(c2cnc(NCc3cccc4occc34)n3cnnc23)CCOC1 [SL-ZYE-17]

IC50 (PRC2 enzyme): 0.0476 µM
Structure (SMILES): CC1C=C(c2cnc(NCc3c(F)ccc4c3CCO4)n3cnnc23)CC(C)N1C(=O)OC(C)(C)C (centres unmarked) [SL-ZYE-23]

IC50 (PRC2 enzyme): 0.0032 µM
Structure (SMILES): O=S1(=O)CCC(c2cnc(NCc3c(F)ccc4c3CCO4)n3cnnc23)CC1 [SL-ZYE-34]

IC50 (PRC2 enzyme): 0.0036 µM
Structure (SMILES): CC1(C)C=C(c2cnc(NCc3c(F)ccc4c3CCO4)n3cnnc23)CCO1 [SL-ZYE-120]

IC50 (Pfeiffer cells; 11 days): 0.001 to 0.003 µM
Structure (SMILES): COC(=O)N1CC=C(c2cnc(NCc3c(F)ccc4c3CCO4)n3cnnc23)CC1 [SL-ZYE-147]

Further lines, the molecule ahead of its results:

Structure (SMILES): Fc1ccc2c(c1CNc1ncc(C3=CCSCC3)c3nncn13)CCO2 [E-Y2]
IC50 (PRC2 enzyme): 0.008 µM

Structure (SMILES): CC(C)(C)OC(=O)NC1CC=C(c2cnc(NCc3ccco3)n3cnnc23)CC1 (centres unmarked) [E-Y9]
IC50 (Pfeiffer cells; 11 days): 0.32 µM

Structure (SMILES): CS(=O)(=O)N1CCC(c2cnc(NCc3c(F)ccc4c3CCO4)n3cnnc23)CC1 [E-Y13-H]
IC50 (PRC2 enzyme): 0.0107 µM

Structure (SMILES): O=C(c1ccccc1)N1CC=C(c2cnc(NCc3c(F)ccc4c3CCO4)n3cnnc23)CC1 [E-Y16]
IC50 (PRC2 enzyme): 0.0177 µM
IC50 (Pfeiffer cells; 11 days): 0.0048 µM

Structure (SMILES): CCNC(=S)N1CC=C(c2cnc(NCc3c(F)ccc4c3CCO4)n3cnnc23)CC1 [E-Y19]
IC50 (PRC2 enzyme): 0.0093 µM
IC50 (Pfeiffer cells): 0.003 µM

Structure (SMILES): O=C(c1ccccc1)N1CC=C(c2cnc(NCc3ccco3)n3cnnc23)CC1 [E-Y21]
IC50 (PRC2 enzyme): 0.351 µM
IC50 (Pfeiffer cells; 11 days): 0.185 µM

Structure (SMILES): CC(C)(C)NC(=O)N1CC=C(c2cnc(NCc3ccco3)n3cnnc23)CC1 [E-Y25]
IC50 (PRC2 enzyme): 0.373 µM

Structure (SMILES): CC(=O)NC1CC=C(c2cnc(NCc3ccco3)n3cnnc23)CC1 (centres unmarked) [E-Y30]
IC50 (PRC2 enzyme): 0.793 µM

Structure (SMILES): O=C(NC1CC=C(c2cnc(NCc3ccco3)n3cnnc23)CC1)c1ccccc1 (centres unmarked) [E-Y31]
IC50 (PRC2 enzyme): 0.758 µM

Structure (SMILES): CS(=O)(=O)NC1CC=C(c2cnc(NCc3ccco3)n3cnnc23)CC1 (centres unmarked) [E-Y32]
IC50 (PRC2 enzyme): 0.342 µM

Structure (SMILES): CC(F)(F)C(=O)N1CC=C(c2cnc(NCc3ccco3)n3cnnc23)CC1 [E-Y34]
IC50 (PRC2 enzyme): 0.907 µM

Structure (SMILES): O=C(NC(=S)N1CC=C(c2cnc(NCc3c(F)ccc4c3CCO4)n3cnnc23)CC1)c1ccccc1 [E-Y39]
IC50 (PRC2 enzyme): 0.0545 µM

Structure (SMILES): CS(=O)(=O)N1CCC=C(c2cnc(NCc3c(F)ccc4c3CCO4)n3cnnc23)CC1 [SL-E14]
IC50 (PRC2 enzyme): 0.0017 µM

Structure (SMILES): CN1CCC(c2cnc(NCc3c(F)ccc4c3CCO4)n3cnnc23)CC1 [SL-E25]
IC50 (PRC2 enzyme): 0.015 µM

Structure (SMILES): CN1CCC(c2cnc(NCc3c(F)ccc4c3CCO4)n3cnnc23)CC1=O (centres unmarked) [SL-E26]
IC50 (PRC2 enzyme): 0.0084 µM

Structure (SMILES): C1=C(c2cnc(NCc3cccc4c3CCO4)n3cnnc23)CCOC1 [SL-ZYE-11]
IC50 (PRC2 enzyme): 0.0179 µM

Structure (SMILES): c1cc(CNc2ncc(C3CCOCC3)c3nncn23)c2c(c1)OCC2 [SL-ZYE-14]
IC50 (PRC2 enzyme): 0.084 µM

Structure (SMILES): CC(C)(C)OC(=O)N1CC=C(c2cnc(NCc3cccc4occc34)n3cnnc23)CC1 [SL-ZYE-18]
IC50 (PRC2 enzyme): 0.115 µM

Structure (SMILES): CC1(C)CC(c2cnc(NCc3c(F)ccc4c3CCO4)n3cnnc23)CCO1 (centres unmarked) [SL-ZYE-121]
IC50 (PRC2 enzyme): 0.0042 µM

Structure (SMILES): COC(=O)N1CCC=C(c2cnc(NCc3c(F)ccc4c3CCO4)n3cnnc23)CC1 [SL-ZYE-183]
IC50 (PRC2 enzyme): 0.0022 µM

Structure (SMILES): CC1(C)C=C(c2cnc(NCc3c(F)ccc4c3CCO4)n3cnnc23)CC(C)(C)O1 [SL-ZYE-195]
IC50 (PRC2 enzyme): 0.0223 µM
